Measurements: publication PMC6823370, “A novel nucleoside rescue metabolic pathway may be responsible for therapeutic effect of orally administered cordycepin” (Scientific Reports, 2019)

Assays:
RAW264.7 cells = test: Repression of inflammatory gene expression in LPS-stimulated RAW264.7 cells (qPCR); format: cell-based, mouse; conditions: 20 µM, 1 h prior to LPS stimulation
Description: RAW 264.7 mouse macrophage cells were cultured in DMEM supplemented with 10% FBS. Prior to experiments, cells were washed with PBS and cells were maintained in DMEM with 0.5% FBS or 10% FBS for 24 h. LPS was added at 1 µg/mL, 1 h before compound treatment, when needed. When the cells were analysed for concentration levels of cordycepin, 3′-deoxyinosine and CordyTP, the cells were washed twice with PBS. The cells were then treated with methanol and mixed vigorously before the mixture was harvested. The mixture was filtered using filter tubes mentioned above and the filtrate was analysed by liquid chromatography coupled with tandem mass spectrometry (LC-MS/MS). For determination of relative mRNA levels, RNA was isolated from the lysates using an RNA isolation kit, following manufacturer’s protocol (Promega, Madison, WI, cat no. Z6012). RNA was reverse transcribed to cDNA using SuperScript™ III reverse transcriptase (Invitrogen, Carlsbad, CA). Quantitative polymerase chain reaction (qPCR), was performed with Qiagen Rotor-Gene Q qPCR machine (Qiagen, Hilden, Germany) using Promega SYBR Green GoTaq® qPCR master mix (Promega).
Figure 3 Repression effect on inflammatory gene expression. (a) NBTI or ITu treatment prior to cordycepin treatment suppresses effect of cordycepin. RAW264.7 cells were treated with 10 µM NBTI, 100 nM ITu or DMSO (Ctrl, control) 15 min prior to cordycepin treatment. The cells were stimulated with LPS 1 h after cordycepin treatment (mean ± SD, n = 3). **p < 0.01; ***p < 0.001 compared to DMSO treatment (labelled as Ctrl). (b) 3′-deoxyinosine exerts same repression effect as cordycepin, although to a lesser degree. RAW264.7 cells were treated with 20 µM cordycepin, 20 µM 3′-deoxyinosine (3DI) or DMSO (Ctrl, control) for 1 h prior to LPS stimulation (mean ± SD, n = 3). **p < 0.01; ***p < 0.001 compared to without compound treatment (labelled as LPS).

[1] = Plasma protein binding, ultrafiltration, human plasma; format: in vitro ADME; conditions: read-out: fraction unbound (Fub) in plasma
Description: Cordycepin was spiked into the plasma to give concentrations of 100, 500, 1000 and 5000 ng/mL, and the samples (300 µL) were incubated in the shaking incubator at 250 rpm and 37 °C for 1 h. Following incubation, 100 µL was withdrawn and analysed for Ct. The remaining sample was transferred to a filter device (Amicon Ultra-0.5 Centrifugal Filter Units, MWCO 3000, Merck Millipore, Cork, Ireland) and was centrifuged at 14,000 g for 10 min at room temperature. Filtrate was collected and analysed for Cf. The fraction unbound in plasma (Fub) was calculated by the equation: Cf/Ct × 100 = Fub. Non-specific binding of cordycepin to the filter device was tested at the same concentration range using phosphate buffered saline (PBS) instead of plasma. Experiments were conducted in quadruplicates.
Samples from studies of plasma stability, protein binding, biorelevant solubility and liver microsomal stability were subjected to liquid-liquid extraction and HPLC-UV analysis. To 100 µL of sample, internal standard (2′-deoxyadenosine) was spiked at 10 µg/mL and 300 µL of 0.1 M NaOH was added. Extraction solvent (3 mL) of ethyl acetate-isopropyl alcohol (85:15, v/v) was added and vortex-mixed for 10 min. Samples were then centrifuged at 1160 g for 5 min and the supernatant was transferred and dried under N2 gas. […]

[2] = Plasma stability of cordycepin in human plasma; format: in vitro ADME; conditions: read-out: ex vivo stability half-life (t1/2) in plasma
Description: Stability of cordycepin in plasma was tested using human and rat plasma by following a previously reported method with minor modifications. Cordycepin was spiked into the plasma at 10 µM and the samples were incubated in a shaking incubator (Thermo Scientific MaxQ4000, Waltham, MA, USA) at 37 °C and shaken at 250 rpm. Samples (100 µL) were withdrawn at predetermined time points. […] The experiments were performed in triplicates.
Samples from studies of plasma stability, protein binding, biorelevant solubility and liver microsomal stability were subjected to liquid-liquid extraction and HPLC-UV analysis. To 100 µL of sample, internal standard (2′-deoxyadenosine) was spiked at 10 µg/mL and 300 µL of 0.1 M NaOH was added. Extraction solvent (3 mL) of ethyl acetate-isopropyl alcohol (85:15, v/v) was added and vortex-mixed for 10 min. Samples were then centrifuged at 1160 g for 5 min and the supernatant was transferred and dried under N2 gas. Dried samples were reconstituted with 100 uL of deionised distilled water (DDW) and 40 µL was injected into the HPLC-UV. The HPLC-UV setup was adopted from a validated method[22] with addition of a gradient scheme to elute the impurities from samples. Waters Alliance 2695 module with Waters 996 PDA detector was used for the HPLC-UV system with Capcell Pak C18 3 µm, 4.6 × 150 mm as the stationary phase. […]

With `Nc1ncnc2c1ncn2[C@@H]1O[C@H](CO)C[C@H]1O` [cordycepin, 3′-deoxyadenosine] the “effect on expression of inflammatory genes” value (RAW264.7 cells) was “inhibitory effect”, the fraction unbound at 1 h [1] was greater than 0.8 and the half-life at 10 µM [2] was 25.8 ± 4 min.
